Source: ChEMBL document CHEMBL1201862, “PubChem BioAssay data set” (2004)
Calls of active or inactive are those of the source.

Legend:
[1] = target: Glyceraldehyde-3-phosphate dehydrogenase (Homo sapiens, UniProt P04406)
[2] = target: T1, Alkaline phosphatase, tissue-nonspecific isozyme (Homo sapiens, UniProt P05186); assay: human TNAP enzyme inhibitors, SAR follow-up, biochemical, luminescent, dose response (AID 1056)
T1 sequence (P05186 whole entry): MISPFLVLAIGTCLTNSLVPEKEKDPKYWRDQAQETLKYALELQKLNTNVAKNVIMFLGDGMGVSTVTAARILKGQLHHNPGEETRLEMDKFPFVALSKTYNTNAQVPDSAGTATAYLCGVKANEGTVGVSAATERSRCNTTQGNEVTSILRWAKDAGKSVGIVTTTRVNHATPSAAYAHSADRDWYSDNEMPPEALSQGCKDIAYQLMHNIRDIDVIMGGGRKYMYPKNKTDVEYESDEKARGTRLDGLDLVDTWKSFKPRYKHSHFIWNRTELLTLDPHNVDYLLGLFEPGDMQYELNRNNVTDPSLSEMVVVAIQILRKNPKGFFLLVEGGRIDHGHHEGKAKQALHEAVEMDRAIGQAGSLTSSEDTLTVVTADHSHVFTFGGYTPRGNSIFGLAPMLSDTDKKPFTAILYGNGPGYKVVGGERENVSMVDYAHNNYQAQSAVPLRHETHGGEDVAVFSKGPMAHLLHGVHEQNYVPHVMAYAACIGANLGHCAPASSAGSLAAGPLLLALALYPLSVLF

[3] = cytotoxicity in HEK-293T cells, dose response, cytotoxicity control for BCR NF-kB inhibitor project, luminescence, B-cell screen hits (AID 489021); format: functional, cell-based;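 also: HEK-293T cells carrying an NF-kB luciferase reporter; cells exposed to compound for about 14 hours before viability readout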
Paired box protein Pax-8 = Paired box protein Pax-8 (Homo sapiens, UniProt Q06710); assay: inhibitors of PAX8-driven TPO luciferase reporter, dose response, RMG-I cells, cherry-pick (AID 687027); format: functional, cell-based;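 also: luciferase reporter driven by Pax8 target thyroperoxidase promoter measured by SteadyGlo luminescence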
[4] = NIH:OVCAR-3 ovarian cancer cell cytotoxicity, dose response, PAX8 inhibitor project, plate reader, dry powder samples (AID 743044); format: functional, cell-based
[5] = A Cell Based Secondary Assay To Explore Cytotoxicity of Compounds that Sensitize Mycobacterium Tuberculosis to Beta-Lactam Antibiotics.; format: functional
Major prion protein = Major prion protein (Homo sapiens, UniProt P04156); format: functional, cell-based
cells [6] = assay: cells
[7] = target: T2, Heat shock factor protein 1 (Mus musculus, UniProt P38532); assay: inhibition of MG132-induced HSE-luciferase signal, confirmation, cell-based, NIH3T3, luminescence, dose retest (AID 2382); format: functional;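 also: NIH3T3 fibroblasts with HSF1-driven luciferase reporter stressed by proteasome inhibitor MG132; luminescence from HSF1-driven luciferase expression after 8 hours of MG132 stress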
T2 sequence (P38532 whole entry): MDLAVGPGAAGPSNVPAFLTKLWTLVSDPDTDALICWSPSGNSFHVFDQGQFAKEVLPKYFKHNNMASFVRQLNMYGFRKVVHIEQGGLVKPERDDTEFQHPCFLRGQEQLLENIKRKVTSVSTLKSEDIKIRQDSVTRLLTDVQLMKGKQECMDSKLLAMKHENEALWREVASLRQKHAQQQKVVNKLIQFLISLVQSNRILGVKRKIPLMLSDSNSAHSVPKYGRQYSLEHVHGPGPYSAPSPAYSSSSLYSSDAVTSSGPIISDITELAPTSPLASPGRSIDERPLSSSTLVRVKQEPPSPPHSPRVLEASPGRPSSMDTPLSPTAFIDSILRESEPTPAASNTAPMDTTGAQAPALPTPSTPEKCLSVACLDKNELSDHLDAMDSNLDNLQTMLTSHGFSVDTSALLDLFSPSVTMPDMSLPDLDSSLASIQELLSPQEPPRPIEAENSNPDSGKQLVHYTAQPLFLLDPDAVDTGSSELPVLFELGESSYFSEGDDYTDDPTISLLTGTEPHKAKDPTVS

[8] = target: Heat shock protein HSP 90-alpha (Homo sapiens, UniProt P07900); format: functional, organism-based
cells [9] = assay: cells; remark: listed apart in the source
[10] = HEp-2 cell cytotoxicity, dose response, cytotoxicity control for RSV inhibitor project, HTS (AID 2410); format: functional; conditions: human respiratory syncytial virus
[11] = Luminescence Cell-Based Dose Response HTS to Identify Inhibitors of 5'UTR Stem-Loop Driven Prion Protein mRNA Translation in H4 Neuroglioblastoma Cells. [Related pubchem assays: 1827 (Project Summary), 1813 (Primary HTS)]; format: functional
[12] = inhibitors of SNCA 5'UTR-driven reporter translation, confirmation, H4 neuroglioma cells, luminescence (AID 1988); format: functional, cell-based
Melanocortin receptor 4 = Melanocortin receptor 4 (Homo sapiens, UniProt P32245); format: functional, cell-based;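 also: Cell-based assay with luminescence read-out, confirmatory dose-response testing for agonist activity of biased ligands at MC4R; human U2OS cells with tagged receptor and beta-arrestin; potency of agonists that increase receptor coupling to beta-arrestin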
[13] = inhibitors of firefly luciferase expression or activity, dose response, H4 neuroglioma cells, luminescence (AID 1990); format: functional, cell-based
Leucine aminopeptidase = target: T3, Leucine aminopeptidase (Plasmodium falciparum 3D7, UniProt Q8IL11); assay: P. falciparum M17LAP inhibitors, primary screen, biochemical, fluorogenic H-Leu-NHMec substrate, 1536-well (AID 1619); format: functional
T3 sequence (Q8IL11 whole entry): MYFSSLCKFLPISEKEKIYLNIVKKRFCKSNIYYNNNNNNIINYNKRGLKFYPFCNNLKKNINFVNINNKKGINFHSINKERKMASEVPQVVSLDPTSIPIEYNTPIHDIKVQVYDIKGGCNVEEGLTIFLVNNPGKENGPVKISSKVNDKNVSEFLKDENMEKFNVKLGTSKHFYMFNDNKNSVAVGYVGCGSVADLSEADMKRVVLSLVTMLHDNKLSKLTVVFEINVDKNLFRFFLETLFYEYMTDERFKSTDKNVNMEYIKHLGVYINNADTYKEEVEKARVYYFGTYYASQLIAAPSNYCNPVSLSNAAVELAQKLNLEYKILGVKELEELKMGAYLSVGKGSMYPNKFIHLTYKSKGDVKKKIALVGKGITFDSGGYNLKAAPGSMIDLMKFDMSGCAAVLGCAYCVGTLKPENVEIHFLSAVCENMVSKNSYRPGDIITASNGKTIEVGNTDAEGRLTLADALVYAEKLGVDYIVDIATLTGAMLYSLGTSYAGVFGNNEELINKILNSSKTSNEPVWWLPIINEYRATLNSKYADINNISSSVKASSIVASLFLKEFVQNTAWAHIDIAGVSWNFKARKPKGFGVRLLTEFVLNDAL

[14] = inhibitors of clade B AD8 Env fusion, dose response, cell-based, cherry-pick (AID 652062); format: functional;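 also: luciferase signal from cell-cell fusion driven by HIV-1 clade B AD8 Env; potency is for inhibitors of fusion seen as a drop in luminescence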
[15] = off-target signal loss in HeLa-CEM21 co-culture – HeLa F-luc CTL cells, cherry-picked, counter-screen for HIV-1 Env fusion inhibitor project, dose response (AID 652040); format: functional, cell-based;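 also: potency for signal decrease marking cytotoxic or nonspecific inhibition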
[16] = inhibitors of HIV Env-driven cell fusion, dose response, cherry-pick (AID 652057); format: functional, cell-based
[17] = ZM109 Env clade C HIV-1 fusion inhibitors, dose response, HeLa effector, CEM target cells, luciferase, cherry-pick (AID 652058); format: functional, cell-based
[18] = target: Induced myeloid leukemia cell differentiation protein Mcl-1 (Homo sapiens, UniProt Q07820); format: functional
[19] = C. albicans growth with fluconazole, confirmation, fluorescence, retest (AID 2467); format: functional, cell-based
[20] = cytotoxicity toward NIH3T3 fibroblasts, dose response, counter-screen, cell-based, ATP luminescence, mouse fibroblasts (AID 2010); format: functional;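 also: cells exposed to compound for about 90 hours before reading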
[21] = NIH-3T3 fibroblast cytotoxicity, dose response, cytotoxicity control, cell-based, fluorescence, Alamar Blue, secondary assay (AID 2327); format: functional;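 also: NIH-3T3 mouse fibroblasts cultured with fluconazole at 8 µg/mL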
[22] = inhibitors of intracellular T. cruzi replication, confirmation, NIH3T3 host cells, beta-gal luminescence (AID 2044); format: functional, cell-based;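 also: intracellular parasites grown in NIH/3T3 mouse fibroblasts as host cells; luminescent beta-galactosidase reporter signal from transgenic T. cruzi replicating inside host cells; inhibitors lower the luminescence signal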
Cytochrome P450 3A4 = Cytochrome P450 3A4 (Homo sapiens, UniProt P08684);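 also: CYP3A4 tested as one member of a cytochrome P450 panel screen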
[23] = Shn3 3'UTR reporter inhibitors, dose response, cell-based, Clone20 osteoblasts, firefly luciferase, cherry-picked (AID 624132); format: functional;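 also: firefly luciferase luminescence from reporter carrying the Shn3 3'UTR in osteoblasts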
[24] = control 3'UTR Renilla luciferase suppression, dose response, counter-screen for Shn3 inhibitor project, cell-based, Clone20-Shn3RL, cherry-picked (AID 624133); format: functional
[25] = HepG2 cell cytotoxicity, dose response, cytotoxicity control for Shn3 inhibitor project, CellTiter-Glo, cherry-picked (AID 624134); format: functional, cell-based

SMILES: Cc1c(CCO)c(O)oc2nnc(-c3ccccc3)c1-2
- IC50 [1]: > 100 µM (not active)
- IC50 [2]: > 100 µM (inactive)

SMILES: Cn1nc(-c2ccc(Cl)cc2)c2cc(C(=O)N3CCCC3)sc21
- IC50 [3]: > 80 µM (inactive)

SMILES: COc1cccc(-c2ccc3c(c2)[C@H]2[C@H](CCN2C(=O)NC2CCCCC2)[C@@H](CO)N3C)c1
- AC50 (Paired box protein Pax-8): 10.6 µM (active)
- AC50 [4]: 27.1 µM (active)

SMILES: CN(C)S(=O)(=O)Oc1ccsc1C(=O)Nc1ccc(C(F)(F)F)cc1
- CC50 [5]: > 40 µM (active)

SMILES: Cn1c(=O)cc(OCCCC(=O)NCc2ccccn2)c2ccccc21
- IC50 [3]: > 80 µM (inactive)

SMILES: Fc1cccc(Cc2c(-c3ccco3)nc3ccc(Br)cn23)c1
- IC50 (Major prion protein): 6.29 µM (active)
- IC50 (cells [6]): > 138 µM (inactive)

SMILES: CC(C)(C)c1nn(-c2ccccc2)c2nc(O)c(CNc3ccc4c(c3)OCCO4)cc12
- EC50 [7]: 83.3 µM (active)
- AC50 [8]: 8.3 µM (active)
- CC50 [5]: > 40 µM (active)

SMILES: COc1ccccc1NC(=O)Nc1ccc2c(c1)CCC2
- IC50 (cells [9]): 40.5 µM (active)
- CC50 [10]: 46.2 µM (active)

SMILES: CN(C)CCC/N=C/c1c(-c2ccccc2)nn(-c2nc3ccccc3s2)c1O
- IC50 [3]: > 80 µM (inactive)

SMILES: COc1cccc(/C=C2/SC(=S)N(CCCC(=O)Nc3ccc(O)cc3)C2=O)c1
- EC50 [11]: 8.15 µM (active)
- EC50 [12]: 16.3 µM (active)
- IC50 [3]: 29 µM (inactive)
- EC50 (Melanocortin receptor 4): > 89.2 µM (inactive)
- EC50 [13]: 6.72 µM (active)

SMILES: O=C1c2ccccc2C(=O)N1c1nc(-c2cccnc2)n[nH]1
- IC50 [1]: > 100 µM (not active)
- IC50 [2]: > 100 µM (inactive)

SMILES: CC1(C)CC(=O)c2c(n[nH]c2-c2cccs2)C1
- IC50 [1]: > 10 µM (inconclusive)
- IC50 [2]: 5.65 µM (active)

SMILES: C[C@H]1CN([C@@H](C)CO)S(=O)(=O)c2ccc(C#Cc3ccc(F)cc3)cc2O[C@@H]1CN(C)C(=O)NC1CCCCC1
- AC50 (Paired box protein Pax-8): 6.32 µM (active)
- AC50 [4]: 37.8 µM (active)

SMILES: O=C(CN1C(=O)c2ccccc2S1(=O)=O)NCCSCc1ccco1
- IC50 (Leucine aminopeptidase): 16.2 µM (active)

SMILES: CCOC(=O)[C@@H]1[C@H]2COc3ccc(Br)cc3[C@@H]2N2C(=O)N(c3ccccc3)C(=O)[C@@]12C
- AC50 [14]: 22.9 µM (active)
- AC50 [15]: 5.09 µM (active)
- AC50 [16]: 2.15 µM (active)
- AC50 [17]: 6.14 µM (active)

SMILES: Oc1ccc(N2CCN(c3ncnc4sc(-c5ccccc5)cc34)CC2)cc1
- IC50 [18]: 1.43 µM (active)
- EC50 [19]: 1.21 µM (active)
- EC50 (Melanocortin receptor 4): > 89.2 µM (inactive)
- EC50 [20]: > 60 µM (not active)
- EC50 [21]: > 160 µM (inactive)
- EC50 [22]: 3.78 µM (active)

SMILES: COc1ccc2[nH]c(C(=O)Nc3ccc(C)c(F)c3)cc2c1
- IC50 (Major prion protein): 10.5 µM (inactive)
- IC50 (cells [6]): > 138 µM (inactive)

SMILES: O=C(Nc1nnc(SCC(=O)N2CCCCC2)s1)c1cccs1
- IC50 (Leucine aminopeptidase): 30.4 µM (active)

SMILES: Cc1ccc(C2C(C#N)=C(N)SC(N)=C2C#N)cc1
- IC50 (Major prion protein): 1.86 µM (active)
- IC50 (cells [6]): > 138 µM (inactive)

SMILES: Cn1c(=O)c2nc(CNCc3ccccc3Cl)[nH]c2n(C)c1=O
- CC50 [5]: > 40 µM (active)

SMILES: OC1(c2ccc(OC(F)F)cc2)CS/C(=N\c2cccnc2)N1C1CC1 (stereo unspecified)
- AC50 [14]: 0.464 µM (active)
- AC50 (Cytochrome P450 3A4): 0.794 µM (inconclusive)
- AC50 [15]: > 70 µM (inactive)
- AC50 [23]: 5.4 µM (active)
- AC50 [24]: 29.4 µM (active)
- AC50 [17]: 36.4 µM (active)
- AC50 [25]: 7.56 µM (active)

SMILES: O=C(O)c1cccc(NC(=S)NC(=O)c2ccc(-c3ccc(Cl)cc3)o2)c1
- IC50 (cells [9]): 11.4 µM (active)
- CC50 [10]: 27.8 µM (active)

SMILES: CC1CCN(C(=O)c2ncn3c2C(=O)N[C@H](C)C3)CC1
- AC50 [14]: 8.4 µM (active)
- AC50 [15]: 16.1 µM (active)
- AC50 [16]: 4.8 µM (active)
- AC50 [17]: 26.6 µM (active)

SMILES: CCc1nc(SCC(=O)Nc2nc3c(s2)CCCC3)c2ccccc2n1
- IC50 (Major prion protein): 6.97 µM (active)
- IC50 (cells [6]): > 138 µM (inactive)

SMILES: NNC(=O)c1cc(-c2ccc(Cl)c(Cl)c2Cl)n[nH]1
- IC50 [1]: > 10 µM (inconclusive)
- IC50 [2]: 0.633 µM (active)

SMILES: COC(=O)c1ccc(C)c(NC(=O)CN2C(=O)c3ccccc3S2(=O)=O)c1
- IC50 (Leucine aminopeptidase): 10 µM (active)

SMILES: Cc1cc2ncn(CC(=O)c3ccc(O)c(O)c3)c2cc1C
- IC50 [2]: > 100 µM (inactive)

SMILES: CCN(C(=O)c1cc2cc3ccc(C)cc3nc2o1)c1ccc(OC)cc1
- IC50 (cells [9]): 33 µM (active)
- CC50 [10]: > 50 µM (active)

SMILES: C=CCN1C(=O)NC(=O)/C(=C(\C)NC(C)c2ccccc2)C1=O (stereo unspecified)
- IC50 [3]: > 80 µM (inactive)

SMILES: O=C(O)c1cccc(C(=O)Cc2ccccc2)c1
- IC50 (Leucine aminopeptidase): 17.5 µM (active)
